Source: ChEMBL document CHEMBL1201862, “PubChem BioAssay data set” (2004)
Active and inactive are the calls of the source.

What was measured:
[1] = cytotoxicity in HEK-293T cells, dose response, cytotoxicity control for BCR NF-kB inhibitor project, luminescence, B-cell screen hits (AID 489021); format: functional, cell-based;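 also: HEK-293T cells carrying an NF-kB luciferase reporter; cells exposed to compound for about 14 hours before viability readout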
[2] = target: T1, G-protein coupled receptor 35 (Homo sapiens, UniProt Q9HC97); test: GPR35 antagonists blocking zaprinast-driven arrestin recruitment, primary screen, imaging, U2OS, beta-arrestin-GFP, zaprinast agonist (AID 2058); format: functional;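 also: antagonist potency meaning inhibition of agonist-induced arrestin redistribution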
[3] = target: T1, G-protein coupled receptor 35; test: SAR Analysis for the identification of Selective Antagonists of ERK1/2 Activity in GPR35-Overexpressing U2OS Cells. [Related pubchem assays: 2079, 2058 ]; format: functional, cell-based
[4] = target: Tyrosine-protein phosphatase non-receptor type 12 (Homo sapiens, UniProt Q05209); test: SAR Selectivity Analysis of small molecule inhibitors of PEST using pCAP in a fluorescence assay. [Related pubchem assays (depositor defined):AID1779, AID1784, AID2135]; format: functional
[5] = target: T2, Tyrosine-protein phosphatase non-receptor type 22 (Homo sapiens, UniProt Q9Y2R2); test: SAR LYP1 Fluorescent Assay using OMFP substrate for In Vitro dose response studies - Set 3. [Related pubchem assays (depositor defined):AID1779, AID1784, AID2140, AID2686]; format: functional
[6] = target: T2, Tyrosine-protein phosphatase non-receptor type 22; test: LYP (PTPN22) phosphatase inhibitor potency, SAR follow-up, biochemical, pCAP fluorogenic substrate, fluorescence, set 3 (AID 449727); format: functional
[7] = target: G-protein coupled receptor 55 (Homo sapiens, UniProt Q9Y2T6); test: GPR55 antagonists, SAR follow-up, counter-screen for GPR35 antagonist project, imaging, image-based (AID 2397); format: functional
[8] = target: 26S proteasome non-ATPase regulatory subunit 14 (Homo sapiens, UniProt O00487); test: inhibition of proteasome subunit RPN11 – biochemical, fluorescence polarization, uHTS hits, confirmation (AID 602368); format: functional
[9] = target: 72 kDa type IV collagenase (Homo sapiens, UniProt P08253); test: Dose Response validation of uHTS RPN11 inhibitor hits using a MMP-2 Fluorescence assay.; format: functional
Prothrombin = Prothrombin (Bos taurus, UniProt P00735); test: thrombin inhibition, dose response, biochemical, fluorescence polarization, uHTS hits (AID 602369); format: functional
[10] = target: Voltage-gated N-type calcium channel alpha-1B subunit/Amyloid beta A4 precursor protein-binding family A member 1 (Homo sapiens, UniProt Q00975+Q02410); test: disruptors of Mint-PDZ/N-type channel peptide interaction – biochemical, HTRF, set 2, SAR follow-up (AID 434980); format: functional
[11] = Luminescence Cell Based Dose Confirmation HTS to Identify Activators of 5'UTR Stem-Loop Driven Alpha-Synuclein mRNA Translation in H4 Neuroglioblastoma Cells. [Related pubchem assays (depositor defined):AID1813, AID1829]; format: functional; details: Homo sapiens

T2 sequence (Q9Y2R2 whole entry): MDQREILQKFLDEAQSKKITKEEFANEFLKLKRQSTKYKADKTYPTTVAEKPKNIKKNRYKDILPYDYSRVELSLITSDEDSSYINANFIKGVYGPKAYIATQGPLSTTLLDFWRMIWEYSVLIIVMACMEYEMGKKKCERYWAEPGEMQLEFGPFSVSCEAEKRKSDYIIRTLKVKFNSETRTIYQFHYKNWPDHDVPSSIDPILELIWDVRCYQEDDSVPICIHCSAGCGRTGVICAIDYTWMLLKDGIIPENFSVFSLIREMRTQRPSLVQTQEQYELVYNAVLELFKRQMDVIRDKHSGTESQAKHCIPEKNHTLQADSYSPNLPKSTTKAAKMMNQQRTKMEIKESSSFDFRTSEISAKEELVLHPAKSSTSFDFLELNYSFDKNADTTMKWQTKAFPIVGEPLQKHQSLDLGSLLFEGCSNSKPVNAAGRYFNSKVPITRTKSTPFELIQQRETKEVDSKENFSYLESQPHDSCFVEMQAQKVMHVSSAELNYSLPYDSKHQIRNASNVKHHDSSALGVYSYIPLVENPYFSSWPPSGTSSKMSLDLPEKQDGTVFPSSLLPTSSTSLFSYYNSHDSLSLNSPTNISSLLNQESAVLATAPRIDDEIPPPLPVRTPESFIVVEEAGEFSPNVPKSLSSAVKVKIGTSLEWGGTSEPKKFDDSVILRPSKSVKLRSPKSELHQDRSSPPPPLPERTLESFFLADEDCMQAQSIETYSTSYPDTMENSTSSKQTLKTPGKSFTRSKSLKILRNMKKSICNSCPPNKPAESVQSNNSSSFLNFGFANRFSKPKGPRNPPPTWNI
T1 sequence (Q9HC97 whole entry): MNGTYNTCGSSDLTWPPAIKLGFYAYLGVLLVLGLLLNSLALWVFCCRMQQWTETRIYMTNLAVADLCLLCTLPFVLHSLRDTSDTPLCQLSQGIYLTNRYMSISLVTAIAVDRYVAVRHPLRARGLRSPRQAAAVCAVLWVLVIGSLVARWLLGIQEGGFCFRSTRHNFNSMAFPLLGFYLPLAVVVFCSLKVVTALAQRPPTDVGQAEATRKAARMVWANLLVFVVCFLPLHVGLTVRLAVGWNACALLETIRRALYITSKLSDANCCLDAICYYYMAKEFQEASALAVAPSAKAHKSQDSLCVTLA
Sequence of 26S proteasome non-ATPase regulatory subunit 14 (O00487 whole entry): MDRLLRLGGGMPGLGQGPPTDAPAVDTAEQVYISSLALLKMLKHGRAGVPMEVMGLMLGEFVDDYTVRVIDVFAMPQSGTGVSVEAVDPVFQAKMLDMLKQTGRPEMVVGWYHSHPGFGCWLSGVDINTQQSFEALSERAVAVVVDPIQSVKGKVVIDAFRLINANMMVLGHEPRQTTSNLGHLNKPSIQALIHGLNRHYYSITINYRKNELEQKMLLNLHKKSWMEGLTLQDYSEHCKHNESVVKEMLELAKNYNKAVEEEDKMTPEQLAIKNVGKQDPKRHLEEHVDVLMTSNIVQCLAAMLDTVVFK
Sequence of Voltage-gated N-type calcium channel alpha-1B subunit/Amyloid beta A4 precursor protein-binding family A member 1 (Q00975 whole entry): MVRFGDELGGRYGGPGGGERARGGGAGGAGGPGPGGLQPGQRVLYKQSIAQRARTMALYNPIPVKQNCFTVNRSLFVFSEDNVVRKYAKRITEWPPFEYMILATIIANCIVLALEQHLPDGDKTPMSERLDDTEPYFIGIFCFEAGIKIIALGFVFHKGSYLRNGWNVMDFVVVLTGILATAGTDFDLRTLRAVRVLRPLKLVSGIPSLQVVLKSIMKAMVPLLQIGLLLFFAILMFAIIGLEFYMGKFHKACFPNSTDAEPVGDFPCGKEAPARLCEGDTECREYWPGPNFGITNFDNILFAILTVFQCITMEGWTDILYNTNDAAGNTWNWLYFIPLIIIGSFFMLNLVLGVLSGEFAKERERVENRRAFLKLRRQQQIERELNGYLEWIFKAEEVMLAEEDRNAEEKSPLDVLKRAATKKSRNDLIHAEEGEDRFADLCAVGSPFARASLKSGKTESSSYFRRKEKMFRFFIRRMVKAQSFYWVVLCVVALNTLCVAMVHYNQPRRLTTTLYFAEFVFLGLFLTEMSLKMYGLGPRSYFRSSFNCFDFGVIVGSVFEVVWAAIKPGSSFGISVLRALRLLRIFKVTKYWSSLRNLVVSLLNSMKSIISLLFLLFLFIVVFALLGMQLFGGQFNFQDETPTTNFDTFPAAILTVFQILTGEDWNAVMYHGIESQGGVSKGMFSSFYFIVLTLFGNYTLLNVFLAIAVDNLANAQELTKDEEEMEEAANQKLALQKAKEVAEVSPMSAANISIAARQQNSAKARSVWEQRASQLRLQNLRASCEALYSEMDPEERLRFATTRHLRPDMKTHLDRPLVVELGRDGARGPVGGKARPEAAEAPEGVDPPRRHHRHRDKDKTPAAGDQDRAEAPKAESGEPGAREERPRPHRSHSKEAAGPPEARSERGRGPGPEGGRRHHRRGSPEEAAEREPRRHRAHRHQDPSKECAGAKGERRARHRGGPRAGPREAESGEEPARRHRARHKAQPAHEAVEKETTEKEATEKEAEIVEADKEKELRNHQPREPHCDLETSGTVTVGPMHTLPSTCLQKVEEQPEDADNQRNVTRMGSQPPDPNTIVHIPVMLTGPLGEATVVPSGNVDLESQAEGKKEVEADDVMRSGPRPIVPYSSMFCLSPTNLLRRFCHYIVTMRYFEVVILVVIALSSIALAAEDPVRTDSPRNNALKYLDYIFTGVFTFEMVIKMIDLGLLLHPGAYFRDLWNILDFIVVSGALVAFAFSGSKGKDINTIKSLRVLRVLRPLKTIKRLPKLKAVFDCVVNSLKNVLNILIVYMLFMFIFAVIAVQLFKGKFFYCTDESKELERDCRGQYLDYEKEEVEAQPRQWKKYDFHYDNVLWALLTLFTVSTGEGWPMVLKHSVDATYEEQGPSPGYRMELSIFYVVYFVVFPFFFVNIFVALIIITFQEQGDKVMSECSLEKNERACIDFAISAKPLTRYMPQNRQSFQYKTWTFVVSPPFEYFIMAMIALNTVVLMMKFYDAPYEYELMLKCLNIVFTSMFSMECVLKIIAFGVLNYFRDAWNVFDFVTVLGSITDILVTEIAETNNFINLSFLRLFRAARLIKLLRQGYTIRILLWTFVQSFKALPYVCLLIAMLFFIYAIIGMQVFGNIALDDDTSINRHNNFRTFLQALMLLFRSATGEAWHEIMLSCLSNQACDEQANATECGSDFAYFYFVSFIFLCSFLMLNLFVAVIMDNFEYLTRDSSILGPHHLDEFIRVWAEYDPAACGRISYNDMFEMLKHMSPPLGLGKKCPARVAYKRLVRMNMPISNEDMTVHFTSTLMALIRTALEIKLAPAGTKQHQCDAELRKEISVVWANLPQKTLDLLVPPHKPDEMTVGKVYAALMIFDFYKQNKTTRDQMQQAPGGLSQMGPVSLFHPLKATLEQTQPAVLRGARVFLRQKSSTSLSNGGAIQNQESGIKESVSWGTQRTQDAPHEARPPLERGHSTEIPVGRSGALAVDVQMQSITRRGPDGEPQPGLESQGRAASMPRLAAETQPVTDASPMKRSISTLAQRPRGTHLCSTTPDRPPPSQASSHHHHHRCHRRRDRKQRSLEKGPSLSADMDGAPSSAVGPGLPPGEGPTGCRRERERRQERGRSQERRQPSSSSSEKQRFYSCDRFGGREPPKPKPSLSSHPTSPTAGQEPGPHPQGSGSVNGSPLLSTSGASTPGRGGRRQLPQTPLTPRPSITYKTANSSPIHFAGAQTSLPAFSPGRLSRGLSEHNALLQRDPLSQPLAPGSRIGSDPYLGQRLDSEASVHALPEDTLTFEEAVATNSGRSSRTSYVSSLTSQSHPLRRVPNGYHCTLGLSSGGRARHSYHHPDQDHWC
Sequence of Voltage-gated N-type calcium channel alpha-1B subunit/Amyloid beta A4 precursor protein-binding family A member 1 (Q02410 whole entry): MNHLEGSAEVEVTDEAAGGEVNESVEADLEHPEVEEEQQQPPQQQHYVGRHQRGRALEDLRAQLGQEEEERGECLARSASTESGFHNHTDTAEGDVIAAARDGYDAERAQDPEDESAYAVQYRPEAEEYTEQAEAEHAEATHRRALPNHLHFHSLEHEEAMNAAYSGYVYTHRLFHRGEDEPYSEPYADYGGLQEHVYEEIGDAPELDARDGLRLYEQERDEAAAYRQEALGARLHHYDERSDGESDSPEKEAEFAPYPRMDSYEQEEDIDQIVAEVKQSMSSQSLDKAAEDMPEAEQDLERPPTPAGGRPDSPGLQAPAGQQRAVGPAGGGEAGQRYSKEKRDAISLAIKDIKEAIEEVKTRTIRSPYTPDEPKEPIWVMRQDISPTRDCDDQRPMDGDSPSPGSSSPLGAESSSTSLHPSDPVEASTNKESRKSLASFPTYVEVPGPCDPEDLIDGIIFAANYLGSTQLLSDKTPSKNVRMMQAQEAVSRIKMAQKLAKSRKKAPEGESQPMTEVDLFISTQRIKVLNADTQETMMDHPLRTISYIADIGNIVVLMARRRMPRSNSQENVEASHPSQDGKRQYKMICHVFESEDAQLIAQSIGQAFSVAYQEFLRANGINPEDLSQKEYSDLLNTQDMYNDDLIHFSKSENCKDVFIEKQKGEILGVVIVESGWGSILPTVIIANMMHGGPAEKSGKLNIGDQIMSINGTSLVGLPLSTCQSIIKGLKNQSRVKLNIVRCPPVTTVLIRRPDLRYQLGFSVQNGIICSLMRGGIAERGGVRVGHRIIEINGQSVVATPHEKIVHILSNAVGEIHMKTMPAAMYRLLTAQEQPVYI
Sequence of G-protein coupled receptor 55 (Q9Y2T6 whole entry): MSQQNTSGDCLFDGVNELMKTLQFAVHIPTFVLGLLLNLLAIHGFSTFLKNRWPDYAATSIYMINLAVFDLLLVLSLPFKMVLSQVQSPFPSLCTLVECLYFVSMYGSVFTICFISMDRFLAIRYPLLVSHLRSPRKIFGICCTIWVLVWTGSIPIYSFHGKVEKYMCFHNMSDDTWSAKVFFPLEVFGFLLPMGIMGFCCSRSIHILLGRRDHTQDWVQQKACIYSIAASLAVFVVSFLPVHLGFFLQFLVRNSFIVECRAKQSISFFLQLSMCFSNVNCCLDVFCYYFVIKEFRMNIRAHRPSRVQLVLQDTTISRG

NC(=S)N=Nc1c(O)n(Cc2ccccc2)c2ccccc12
IC50 [1]: > 80 µM (inactive)

COc1ccc(/C=C2\SC(=S)N(CCCC(=O)Nc3cccc(C(=O)O)c3)C2=O)cc1OC
IC50 [2]: 0.564 µM (active) | IC50 [3]: 1.2 µM (active) | IC50 [4]: 58.8 µM (active) | IC50 [5]: > 100 µM (inactive) | IC50 [6]: 95.9 µM (active) | IC50 [7]: > 32 µM (inactive) | IC50 [8]: 17.7 µM (active) | IC50 [9]: > 100 µM (inactive) | IC50 (Prothrombin): 23.9 µM (active)

O=C(NC1CCc2ccccc2C1)c1cc(-c2ccco2)nc2ccccc12 (configuration not stated)
IC50 [10]: > 56.8 µM (inactive)

FC(F)(F)c1ccc(Cl)c(Nc2nnc(-c3ccncc3)s2)c1
EC50 [11]: > 195 µM (inactive)
